Values joined by “and” are separate entries in the source; they are usually repeats but may differ in a detail not shown here. Equal values may be shown once. Read-outs that look alike come from different tables or passages of the source.
Key:
[1] = Permeation of anagrelide from saturated solutions through human epidermis (Franz-type diffusion cells); assay type: in vitro ADME
Procedure: Saturated Solutions of Anagrelide were Prepared in:
1. 5% lauryl alcohol in isopropyl myristate (LA in IPM)
2. 2% oleic acid in propylene glycol (OA in PG)
3. 0.5% oleic acid in propylene glycol
4. 5% glyceryl monooleate in isopropyl myristate (GMO in IPM)
5. 5% glyceryl laurate in isopropyl myristate (GLA in IPM)
9. Isopropyl myristate (IPM)
11. 5% oleic acid (OA) in propylene glycol (PG)
12. 70:30 (v/v) dimethyl sulfoxide: propylene glycol
An analytical method using HPLC with UV detection was established for anagrelide. Six point calibration curves were generated over the range 0.2-2 μg/ml were generated for each analytical run and the precision confirmed on each occasion by the making at least 7 replicate injections of the highest standard. Details of the equipment and methods used are given below.
Human epidermis was prepared by the heat separation technique (A. M. Kligman and E Christophers, Preparation of isolated sheets of human stratum corneum. Arch Dermatol., vol. 88, 70-73 (1963). Water was heated to 60° C. on a hotplate and the skin was immersed in the water at this temperature for 1 minute. The skin was then removed from the water and the epidermis carefully peeled off using blunt tweezers. Care was taken not to introduce any holes in this process. The epidermal tissue was placed on a filter paper stratum corneum uppermost. The samples were then stored in freezer.
Franz-type horizontal glass diffusion cells were used. The receptor medium was thermostatted at 37° C., to represent body temperature. There will be a temperature gradient across the membrane and applied solution, but this should simulate ‘in use’ conditions. Under these conditions the surface temperature of the skin was 32° C.
The skin samples were thawed overnight before use. The epidermal membranes were cut to size and were placed between the two halves of the cells. High vacuum grease was used to seal the two compartments. The cell was clamped using a metal holder. The receptor arm was closed using glass caps to prevent evaporation. The donor compartment was occluded to prevent any donor solution evaporation
The receptor medium was first introduced and equilibrated for 1 h. 1 mL of the saturated solution with excess drug was applied in the donor compartment. Excess drug was used to ensure there is no depletion of the drug during the course of the experiment. The starting time was taken as the time at which the solutions were applied.
At set sampling points (12, 24, 30, 36 and 48 hours), 200 μL of the receptor phase from each diffusion cell was removed for analysis of the anagrelide and replaced by an equivalent of fresh receptor phase solution pre-thermostatted to 37° C.
For each solution, six replicates were tested. A control (without any formulation applied in the donor compartment) was also examined.

[2] = system: CD34+ cells; assay: Megakaryocyte number in thrombopoietin-expanded CD34+ cell cultures; assay type: cell-based; settings: for effect on number of megakaryocytes: day-8 cultures; for number of megakaryocytes: day-12 cultures
Text: Cells were harvested for analysis after 4 or 8 days of the initiation of drug treatment (day-8 and day-12 cultures, respectively). As shown in FIG. 2 in day-8 cultures no effect of anagrelide could be detected.

[3] = Permeation of anagrelide from saturated solutions through human epidermis (Franz-type diffusion cells); assay type: in vitro ADME; settings: for Amt permeated at 24 hours: human epidermis
[4] = Plasma levels of anagrelide and metabolite A after oral, intra-venous and transdermal anagrelide in the mini-pig; assay type: in vivo; settings: for AUC / Cmax: mini-pig n=3, plasma analyte = label
Procedure: The plasma level of anagrelide and metabolite A were measured in a mini-pig study following oral, intra-venous and transdermal administration of anagrelide.
The comparative bioavailability of anagrelide following oral administration of 1 mg or the dermal application of a saturated solution to ˜45 cm2 surface area of the back was assessed in three minipigs. Standard AgrylinR capsules (2×0.5 mg) were administered orally to fasted animals, whereas the dermal formulation was a saturated solution of the drug in 5% (v/v) oleic acid in propylene glycol.
Plasma concentrations of anagrelide and its metabolites were determined by a validated LC-MS/MS assay. Pharmacokinetic parameters were calculated by non-compartmental methods using WinNonlin.
Studies in the Mini-Pig (n=3)

[5] = Pharmacokinetics in patients with myeloproliferative disease at steady state; settings: patients N=18, multiple dosing, analyte = label
[6] = Pharmacokinetics in healthy male volunteers after a single dose of anagrelide; settings: healthy male volunteers N=38; single 1 mg oral dose of anagrelide; analyte = label
Text: Summary of mean Pharmacokinetic Parameters of Anagrelide in Volunteers after a Single Dose of the Drug

[7] = system: PDE III; assay: PDE III activity of anagrelide and metabolite A; assay type: biochemical
Procedure: Inhibition of PDE III, which is present in myocardium, causes an increase in both the force and rate of cardiac contractility. These are undesirable side effects for a platelet reducing agent.
The PDE III activity of both anagrelide and metabolite A was evaluated by standard methods.

[8] = dog, in vivo
Procedure: (§1) A study was conducted in a large group of dogs comparing metabolite A with the standard reference inotrope milrinone.

[9] = system: platelet; assay: Therapeutic platelet lowering action
[10] = Cardiovascular study in dogs comparing metabolite A with milrinone
Procedure: as §1

[11] = anagrelide Dermal, saturated solution in 5% OA in PG, ~45 cm2, 24 h
[12] = anagrelide Intra-venous 1 mg/propylene glycol

Structure (SMILES): O=C1CN2Cc3c(ccc(Cl)c3Cl)N=C2N1 [Anagrelide]
- Amt permeated at 24 hours ([1]; saturated solution in 2% OA in PG): 8.9 μg/cm^2
- Amt permeated at 24 hours ([1]; saturated solution in 5% GLA in IPM): 5.2 μg/cm^2
- Amt permeated at 24 hours ([1]; saturated solution in 5% GMO in IPM): 5.7 μg/cm^2
- Amt permeated at 24 hours ([1]; saturated solution in 5% LA in IPM): 0.5 μg/cm^2
- Amt permeated at 24 hours ([1]; saturated solution in 5% OA in PG): 4.4 μg/cm^2
- Amt permeated at 24 hours ([1]; saturated solution in IPM (isopropyl myristate)): 1.5 μg/cm^2
- effect on number of megakaryocytes ([2]; continuous exposure to 4 ng/ml anagrelide (~13 nM)): no effect
- number of megakaryocytes ([2]; continuous exposure to 4 ng/ml anagrelide (~13 nM), p=0.038, n=3): 77±5 % of control
- effect on number of megakaryocytes ([2]; single dose of 40 ng/ml anagrelide (~133 nM)): no effect
- number of megakaryocytes ([2]; single dose of 40 ng/ml anagrelide (~133 nM), p=0.015, n=3): 68±4 % if control
- Cav from the maximum likely flux rate through human skin ([3]; calculated for transdermal delivery in man): 3 to 4 ng/mL
- Amt permeated at 24 hours ([3]; saturated solution in 0.5% OA in PG): 0.5 μg/cm^2
- Amt permeated at 24 hours ([3]; saturated solution in 70:30 DMSO:PG ('gold standard')): 8.4 μg/cm^2
- Amt permeated at 24 hours ([3]; saturated solution in 70:30 DMSO:PG ('gold standard'), listed as anagrelide): 8.41 μg/cm^2
- Amt permeated at 24 hours ([3]; saturated solution in Ethanol): 0.9 μg/cm^2
- Amt permeated at 24 hours ([3]; saturated solution in Formulation 1 (Labrasol, Plurol Oleique, Labrafac Lipophile, propylene glycol)): 2.1 μg/cm^2
- Amt permeated at 24 hours ([3]; saturated solution in Formulation 2 (Labrafil M 1944CS, Labrafac Lipophile, Labrasol, Plurol oleique, water)): 1.5 μg/cm^2
- Amt permeated at 24 hours ([3]; saturated solution in Glycerol): 0.04 μg/cm^2
- Amt permeated at 24 hours ([3]; saturated solution in PG (propylene glycol)): 0.5 μg/cm^2 and 0.54 μg/cm^2
- Amt permeated at 24 hours ([3]; saturated solution in PG (propylene glycol), listed as anagrelide): 0.5 μg/cm^2
- Amt permeated at 24 hours ([3]; saturated solution in Transcutol): 0.0 μg/cm^2 and 0 μg/cm^2
- Amt permeated at 24 hours ([3]; saturated solution in Triacetin): 0.0 μg/cm^2 and 0 μg/cm^2
- AUC [4, 11]: 10.8 ng·h/mL
- Cmax [4, 11]: 0.69 ng/mL
- AUC [4, 12]: 50.7 ng·h/mL
- Cmax [4, 12]: 87.1 ng/mL
- AUC ([4]; anagrelide Oral 1 mg/capsule): 10.3 ng·h/mL
- Cmax ([4]; anagrelide Oral 1 mg/capsule): 1.45 ng/mL
- decline in concentrations post-peak prior to wash-off at 24 h ([4]; mini-pig, dermal application): 50%
- average dermal flux ([4]; mini-pig, dermal saturated solution in 5% oleic acid in propylene glycol, estimated): 197 ng/cm2/h
- maximum plasma concentration lower following dermal application versus oral ([4]; mini-pig, dermal versus oral 1 mg): 50%
- exposure to anagrelide, dermal versus oral route ([4]; mini-pig, oral 1 mg versus dermal saturated solution): comparable exposure
- AUC0-t ± RE (AUC over dosage interval) [5]: 18.64(5.28) ng · h/mL
- Cmax ± RE [5]: 5.31(1.33) ng/mL
- Tmax ± RE [5]: 2.00(0.32) hours
- t1/2 ± RE [5]: 2.89(0.73) hours
- AUC0-inf ± RSD (%) [6]: 11.1 ± 37.6 ng·h/mL
- Cmax ± RSD (%) [6]: 4.99 ± 74.4 ng/mL
- Tmax ± RSD (%) [6]: 1.3 ± 53.8 h
- t1/2 ± RSD (%) [6]: 1.5 ± 49.8 h

Structure (SMILES): O=C1NC2=Nc3ccc(Cl)c(Cl)c3CN2C1O (stereo not drawn) [Metabolite A]
- potency relative to anagrelide as an inhibitor of PDEIII ([7]; earlier in vitro studies): 40 fold
- PDE III potency relative to anagrelide ([7]; standard methods): 40 ×
- potency as a cardiovascular agent relative to anagrelide ([7]; statement): ~40 times
- effect on (+)dP/dt max (a measure of contractility) [8]: well sustained and largely dose-dependent
- maximum decrease in mean blood pressure [8]: about 30 mmHg
- mean maximum increase in heart rate [8]: ~66 b.p.m.
- potency relative to milrinone in decreasing mean blood pressure [8]: 10 ×
- therapeutic platelet lowering action relative to anagrelide [9]: equipotent

Structure (SMILES): Cc1[nH]c(=O)c(C#N)cc1-c1ccncc1 [milrinone]
- effect on (+)dP/dt max (a measure of contractility) [10]: immediate, dose-dependent increases in (+)dP/dt max, but they were not well sustained
- maximum decrease in mean blood pressure ([10]; dose-dependent): about 30 mmHg
- mean maximum increase in heart rate ([10]; dose-dependent): ~76 b.p.m.

Source: patent publication US20040209907A1, “Formulation and methods for the treatment of thrombocythemia” (priority 2003, published 2004)
